Read-outs that look alike come from different tables or passages of the source.
Experiments:
[1] = test system: Key Broadleaf Weed and Crop Species; assay: Post-emergent Test II herbicidal activity (Table 5); type: in vivo; settings: post-emergence, 336 h, 14 days after application; for pest or weed control at 70 g/ha: application rate 70 g ai/ha; for pest or weed control at 140 g/ha: application rate 140 g ai/ha
Summary of the method: (§1)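 Percent injury, 0 (none) to 100 (complete kill), was judged visually 14 d after spraying young plants at the first or second true leaf stage with compound in an acetone/DMSO aqueous carrier at 187 L/ha. Plants were kept in a greenhouse at 23–29 °C by day.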

[2] = test system: Key Grass and Sedge Weeds as well as Grass Crops; assay: Post-emergent Test II herbicidal activity (Table 6); type: in vivo; settings: post-emergence, 336 h; for pest or weed control at 70 g/ha: 70 g ai/ha; for pest or weed control at 140 g/ha: 140 g ai/ha
Summary of the method: as §1

[3] = ABUTH: velvetleaf (Abutilon theophrasti), read-out: Visual Growth Reduction (%) 14 Days After Application, ABUTH
[4] = AMARE: redroot pigweed (Amaranthus retroflexus), read-out: Visual Growth Reduction (%) 14 Days After Application, AMARE
[5] = BRSNN: oilseed-rape, canola (Brassica napus), read-out: Visual Growth Reduction (%) 14 Days After Application, BRSNN
[6] = CHEAL: lambsquarters (Chenopodium album), read-out: Visual Growth Reduction (%) 14 Days After Application, CHEAL
[7] = EPHHL: wild poinsettia (Euphorbia heterophylla), read-out: Visual Growth Reduction (%) 14 Days After Application, EPHHL
[8] = HELAN: sunflower (Helianthus annuus), read-out: Visual Growth Reduction (%) 14 Days After Application, HELAN
[9] = VIOTR: wild pansy (Viola tricolor), read-out: Visual Growth Reduction (%) 14 Days After Application, VIOTR
[10] = CYPES: yellow nutsedge (Cyperus esculentus), read-out: Visual Growth Reduction (%) 14 Days After Application, CYPES
[11] = DIGSA: crabgrass (Digitaria sanguinalis), read-out: Visual Growth Reduction (%) 14 Days After Application, DIGSA
[12] = ECHCG: barnyardgrass (Echinochloa crus-galli), read-out: Visual Growth Reduction (%) 14 Days After Application, ECHCG
[13] = ORYSA: rice (Oryza sativa), crop, read-out: Visual Growth Reduction (%) 14 Days After Application, ORYSA
[14] = SETFA: giant foxtail (Setaria faberi), read-out: Visual Growth Reduction (%) 14 Days After Application, SETFA
[15] = SORVU: grain sorghum (Sorghum vulgare), read-out: Visual Growth Reduction (%) 14 Days After Application, SORVU
[16] = TRZSS (wheat, Triticum aestivum), crop, read-out: Visual Growth Reduction (%) 14 Days After Application, TRZSS
[17] = ZEAMX: maize, corn (Zea mays), crop, read-out: Visual Growth Reduction (%) 14 Days After Application, ZEAMX

## Nc1cc(-c2ccc(Br)cc2)nc(C(=O)O)c1Cl [Compound 168]
[1]; [3]
  pest or weed control at 70 g/ha: 95 to 100%
  pest or weed control at 140 g/ha: 95 to 100%
[1]; [4]
  pest or weed control at 70 g/ha: 95 to 100%
  pest or weed control at 140 g/ha: 95 to 100%
[1]; [5]
  pest or weed control at 70 g/ha: 95 to 100%
  pest or weed control at 140 g/ha: 95 to 100%
[1]; [6]
  pest or weed control at 70 g/ha: 95 to 100%
  pest or weed control at 140 g/ha: 95 to 100%
[1]; [7]
  pest or weed control at 70 g/ha: 95 to 100%
  pest or weed control at 140 g/ha: 95 to 100%
[1]; [8]
  pest or weed control at 70 g/ha: 95 to 100%
  pest or weed control at 140 g/ha: 95 to 100%
[1]; [9]
  pest or weed control at 70 g/ha: 0 to 29%
  pest or weed control at 140 g/ha: 30 to 44%
[2]; [10]
  pest or weed control at 70 g/ha: 95 to 100%
  pest or weed control at 140 g/ha: 95 to 100%
[2]; [11]
  pest or weed control at 70 g/ha: 75 to 84%
  pest or weed control at 140 g/ha: 75 to 84%
[2]; [12]
  pest or weed control at 70 g/ha: 95 to 100%
  pest or weed control at 140 g/ha: 95 to 100%
[2]; [13]
  pest or weed control at 70 g/ha: 0 to 29%
  pest or weed control at 140 g/ha: 0 to 29%
[2]; [14]
  pest or weed control at 70 g/ha: 95 to 100%
  pest or weed control at 140 g/ha: 95 to 100%
[2]; [15]
  pest or weed control at 70 g/ha: 95 to 100%
  pest or weed control at 140 g/ha: 95 to 100%
[2]; [16]
  pest or weed control at 70 g/ha: 60 to 74%
  pest or weed control at 140 g/ha: 60 to 74%
[2]; [17]
  pest or weed control at 70 g/ha: 95 to 100%
  pest or weed control at 140 g/ha: 95 to 100%
